The source made the active and inactive calls.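 How the source made its calls: active means compounds giving half or more protection of infected cells from virus-caused growth loss, again on retest; inactive means the rest.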 *1 amine or outer side, *2 acyl side, *3 side chain or, on linkers, in order; H or OH if unused. Where a SMILES comes first, the peptide text is derived from it. Bridges are numbered along the chain shown (N, C = ends). [ ]: non-standard residue; d: D form. The star is where a group is joined. X22 = CC(C)C(C)C(C(=O)[*:2])N(C)[*:1]; Picolinoyl(3-OH) = O=C(c1ncccc1O)*; NMePhg = CN[CH](C(=O)O)c1ccccc1; Hyp = O=C(O)[CH]1C[CH](O)CN1; Sar = CNCC(=O)O
System: CEM cells HIV-1 protection, formazan growth assay
Assay: NCI AIDS Antiviral Assay
Settings: for IC50: measured here: growth of uninfected CEM cells
In short: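 Human CEM cells, uninfected and HIV-1-infected, exposed to five drug concentrations; growth measured by soluble formazan assay and scored as percent protection from infection, with protecting compounds retested.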

| SMILES | outcome | IC50 | EC50 |
| --- | --- | --- | --- |
| CC(C)CC1NC(=O)C(NC(=O)c2ncccc2O)C(C)OC(=O)C(c2ccccc2)N(C)C(=O)C(C)NC(=O)C(C(C)C(C)C)N(C)C(=O)CN(C)C(=O)C2CC(O)CN2C1=O (configuration not stated) ({Picolinoyl(3-OH)}-TL[Hyp][Sar][X22]A[NMePhg]; ester 1-C; configuration not given here) | inactive | – | – |
| CN1NC2=NCCN=C3NN(C)C(=NCCN=C1S2)S3 | inactive | > 200 µM | – |
| C1CSCCCSCCCSCCCSC1 | – | > 33.9 µM | > 33.9 µM |
| Cc1ccccc1/C=C/c1csnn1 | – | > 129 µM | > 129 µM |
| CC(C)=CCC/C(C)=C/Cc1c(O)ccc2cc(-c3cc(O)cc(O)c3CC=C(C)C)oc12 | – | 18.2 µM | > 22.4 µM |
| O=C1CSc2nc3ccccc3n2/C=N\N1 | – | > 200 µM | > 200 µM |
| O=C(/C=C/c1ccc2c(c1)OCO2)N1CCCCC1 | inactive | – | – |
| O=[N+]([O-])O.[Tb] | inactive | – | – |
| C=CCNC(=S)/N=C/C(C(=O)Nc1ccc(Cl)cc1)=C(\C)O | – | 129 µM | > 200 µM |
| O=C(NN1C(=O)CSC1c1ccco1)c1ccncc1 (configuration not stated) | – | > 200 µM | > 200 µM |
| CCOC(=O)C(C#N)C(C)CC (configuration not stated) | – | > 200 µM | > 200 µM |
| CCOC(OCC)c1ccc(C(F)(F)F)cc1.[C-]#[O+].[C-]#[O+].[C-]#[O+].[Cr] | – | 3.02 µM | > 20 µM |
| C=C(C)[C@@]1(OC(=O)c2cc([N+](=O)[O-])cc([N+](=O)[O-])c2)C[C@@H]2CCCC[C@@H]21 | inactive | – | – |
| Cc1cc2c(cc1C)[n+](=O)c(C(=O)CC(=O)C(=O)Nc1ccccc1C)c(C)n2[O-] | – | > 9.33 µM | > 9.33 µM |
| OCC(O)C(O)C(O)c1nn(-c2ccccc2)c2nc3cc(Cl)c(Cl)cc3nc12 (configuration not stated) | inactive | – | – |
| CCOC(=O)C(=O)Nc1c(C)cccc1C | – | > 1120 µM | > 1120 µM |
| CC1=C(C(=O)NCC(C)O)CC(C(=O)NCC(C)O)=C(C)N1 (configuration not stated) | – | > 200 µM | > 200 µM |
| N/N=C(\c1ccccc1)c1cccs1 | – | > 200 µM | > 200 µM |
| Cc1ccc2c(c1)CNc1ccc(C)cc1CN2 | inactive | – | – |
| COC(=O)[C@@H](NC1(c2ccccc2)c2ccccc2-c2ccccc21)[C@H](OC(=O)[C@H]1CCCN1S(=O)(=O)c1ccccc1)C(=O)OC | – | 9.33 µM | > 200 µM |
| COC(=O)C(N)C(C)c1c[nH]c2ccccc12 (configuration not stated) | – | > 200 µM | > 200 µM |

| SMILES | outcome | IC50 | EC50 |
| --- | --- | --- | --- |
| Cc1ccc(S(=O)(=O)n2nc(Oc3ccc(Cl)c(Cl)c3)nc2N)cc1 | – | > 3.63 µM | > 3.63 µM |
| NC1CC(=O)c2c(I)sc(I)c21 (configuration not stated) | – | 4.47 µM | > 200 µM |
| O=c1[nH]nc(Nc2ccccc2)c2nnn(C3CCCCC3)c12 | – | > 174 µM | > 174 µM |
| CC1S(=O)(=O)OCCCOS1(=O)=O | – | > 1070 µM | > 1070 µM |
| Cc1nc(-n2nc(-c3ccccc3)cc2-c2ccccc2)sc1C(=O)/C=C/c1ccc(Cl)c(Cl)c1 | – | > 26.3 µM | > 26.3 µM |
| O=S(=O)(O)c1cc(O)c2c(O)cc(S(=O)(=O)O)cc2c1 | – | 550 µM | 347 µM |
| CSc1nnc(SC)nn1 | – | 0.851 µM | > 200 µM |
| OC(c1cnc2sccn12)C(F)(F)Sc1ccccc1 (configuration not stated) | – | 10.2 µM | > 200 µM |
| CCOCCOCCOCc1nc(C#N)c(N)o1 | – | > 200 µM | > 200 µM |
| CCN(CC)CCN=Cc1c(O)c(O)c(C(C)C)c2cc(C)c(-c3c(C)cc4c(C(C)C)c(O)c(O)c(C=NCCN(CC)CC)c4c3O)c(O)c12 | – | 1.02 µM | > 200 µM |
| NCCSc1nc2ccccc2c(=O)n1-c1ccccc1 | – | 30.2 µM | > 200 µM |
| Cc1csc2nc(-c3ccccc3)cn12 | – | 204 µM | > 437 µM |
| CC(SCCCCCCCCCCSC(C)C(=O)O)C(=O)O (configuration not stated) | – | > 141 µM | > 141 µM |
| COc1cccc(Nc2nc(N)nc(N)c2N=O)c1 | – | 11.2 µM | > 200 µM |
| COc1ccc2nc3c([N+](=O)[O-])ccc(NCCN(C)C)c3c(N)c2c1 | – | 0.794 µM | > 200 µM |
| Cc1c(C)c2c(c(N)c1C#N)C(=O)N(NC(=O)c1ccccc1)C2=O | – | 186 µM | > 200 µM |
| O=C(/C=C\c1ccc(Cl)c(Cl)c1)c1cccs1 | – | 10.2 µM | > 200 µM |
| CC(c1ccccc1)n1c2ccccc2c2c(N)ncnc21 (configuration not stated) | – | 17.8 µM | > 200 µM |
| C=C(C)COC(=O)C1CC2OC2CC1C(=O)OCC(=C)C (configuration not stated) | – | 166 µM | > 200 µM |
| O=C1c2ccccc2C(=O)c2sc(Nc3ccccc3Cl)nc21 | – | > 7.94 µM | > 7.94 µM |
| CC(=Nc1c2ccccc2nc2ccccc12)N(C)C | – | 28.2 µM | > 200 µM |

| SMILES | outcome | IC50 | EC50 |
| --- | --- | --- | --- |
| OCCN(CCO)CCn1cnc2c(NCc3ccccc3)ncnc21 | – | > 200 µM | > 200 µM |
| O=C1OC(C2Cc3ccccc3C2=O)c2ccccc21 (configuration not stated) | – | 186 µM | > 200 µM |
| COC(=O)C1(Cc2ccc3c(c2)CCC3)Cc2ccc3c(c2C1O)CCC3 (configuration not stated) | – | 12.3 µM | > 200 µM |
| CCCc1cc(=O)oc2c3c(cc(OC(C)C)c12)O[C@H](C)[C@@H](C)[C@H]3O | – | 12 µM | > 200 µM |
| CCC1CN2CCc3cc(OC)c(OC)cc3C2CC1CC1c2cc(OC)c(OC)cc2CCN1C(=O)C(N)Cc1ccccc1 (configuration not stated) | inactive | – | – |
| N#C/C(=C\NC(=S)Nc1cc(Cl)ccc1Cl)c1nc2ccccc2s1 | – | > 100 µM | > 100 µM |
| O=C(O)c1c2c(cc3c1CC1(Cc4cc5c(cc4C1=O)CCC5)C3)CCC2 (configuration not stated) | – | 72.4 µM | > 200 µM |
| Cc1cccc(NC(=O)Cc2nc3ccccc3s2)c1C | – | > 17.8 µM | > 17.8 µM |
| CC1CC[C@H]2[C@@H]1[C@H]1[C@@H](CC[C@@]23CCc2ccccc2O3)C1(C)C (some centres not stated) | – | > 11.5 µM | > 11.5 µM |
| Cc1ccc2c(N(CCO)CCO)cc(-c3ccccc3)nc2n1 | – | > 200 µM | > 200 µM |
| NC(=Nc1ccccc1)N/N=C/c1c[nH]c2ccccc12 | – | 0.224 µM | > 380 µM |
| CC(=O)OCC1OC(n2cc(I)c(=O)[nH]c2=O)C(OC(C)=O)C(OC(C)=O)C1OC(C)=O (configuration not stated) | – | 282 µM | > 437 µM |
| CC(=O)OCC1OC(n2c(=S)n(-c3ccccc3)c(=O)c3cc(Br)ccc32)C(OC(C)=O)C(OC(C)=O)C1OC(C)=O (configuration not stated) | – | > 10.7 µM | > 10.7 µM |
| CCC(C)C(NC(=O)C(CCC(N)=O)NC(=O)C(CCC(N)=O)NC(=O)C(CO)NC(=O)C(CC(C)C)NC(=O)C(CC(N)=O)NC(=O)C(N)C(C)O)C(=O)NC(CO)C(=O)NC(CO)C(=O)NC(CC(N)=O)C(=O)O (configuration not stated) (H-TNLSQQISSN-OH; configuration not given here) | – | > 28.8 µM | > 28.8 µM |
| O=C(CCc1ccc(O)c(O)c1)NCCc1cc(O)c(O)c(O)c1 | – | 5.01 µM | > 200 µM |
| O=C(OCCN1CCCCC1)c1cc2ccccc2[nH]1 | – | > 200 µM | > 200 µM |
| CC(C)c1ccc(/C=C2\CSC/C(=C\c3ccc(C(C)C)cc3)C2=O)cc1 | – | 123 µM | > 200 µM |
| CC(C)(C)C1(C#N)C(=O)N(c2ccc(N3C(=O)C(C#N)(C(C)(C)C)C34c3ccccc3-c3ccccc34)cc2)C12c1ccccc1-c1ccccc12 (configuration not stated) | – | 107 µM | > 372 µM |
| COc1cc(/C=C/C(=O)c2ccc(O)c(OC)c2)ccc1O | – | 11.5 µM | > 200 µM |
| N#CC(c1ccc(Cl)cc1)c1cccc(C(C#N)c2ccc(Cl)cc2)n1 (configuration not stated) | – | > 661 µM | > 661 µM |
